The source of these data is patent US20240156800A1, “EP300 DEGRADER AND USES THEREOF IN NEUROBLASTOMA” (DANA-FARBER CANCER INSTITUTE, INC., priority 2021, published 2024).

“Also recorded” adds a separate entry of the source.

In one data set the target is T1, CBP (Homo sapiens, UniProt Q92793).
T1 construct: Cells growing in culture were lysed for whole cell lysates; endogenous in cells; host or cells: Kelly, NGP, SIMA, BE2C neuroblastoma cells; Kelly xenografts in NSG mice
Description: Western blotting of CBP in treated NB cells. It is filed as cell-based. Here is the method: (§1) Cells growing in culture were lysed for whole cell lysates as described in Durbin et al. Nat. Genet. 50:1240-1246 (2018) and Wang et al. Nat. Commun. 10:5622 (2019). Nuclear lysates were prepared using the NE-PER® nuclear lysate kit (Thermo Scientific™) according to the manufacturer's protocol. Chromatin lysates were prepared with the total histone extraction kit (Epigentek). Briefly, equivalent amounts of protein were resolved by western blotting using 4-12% Bis-Tris NuPAGE™ gels (Thermo-Fisher Scientific) prior to transfer, and immunoblotting using primary antibodies to: MYCN (1:1000, Cell Signaling Technology®), H3K27ac (1:1000, Abcam), total H3 (1:1000, Cell Signaling Technology®), EP300 (1:1000, Abcam), CBP (1:500, Cell Signaling Technology®), Cas9 (1:1000, Cell Signaling Technology®), cleaved-PARP1 (1:1000, Cell Signaling Technology), cleaved Caspase-3 (1:1000, Cell Signaling Technology®), β-actin (1:1000, Cell Signaling Technology®), GATA3 (1:1000, EMD Millipore™), TFAP2β (1:1000, Cell Signaling Technology®), Vinculin (1:1000, EMD Millipore™), CRBN (1:1000, Cell Signaling Technology®), HAND2 (1:1000, Santa Cruz Biotechnology). Secondary antibodies were horseradish peroxidase (HRP)-conjugated anti-rabbit or anti-mouse (1:5000, Santa Cruz Biotechnology), incubated prior to exposure to enhanced chemiluminescence reagents (GE, Amersham). For immunoprecipitation, equal amounts of protein were diluted in buffer C as described in Mansour et al. Science 346:1373-1377 (2014) and incubated with antibodies covalently conjugated to Dynabeads™ M-270 beads (Thermo-Fisher Scientific) overnight according to the manufacturer's directions. Antibodies used included: H3K27ac, EP300 (Abcam), CBP, TFAP2β (Cell Signaling Technology®), rabbit immunoglobulin G (IgG) (Santa Cruz Biotechnology®). Immunoprecipitated protein was isolated as per the manufacturer's directions and subjected to western blotting, as described above, or mass spectrometry.
In general terms: A western blot detects proteins with antibodies after separation by electrophoresis.

Data set [1] can be described thus: Maximum tolerated dose testing, daily IP dosing in CD1 mice. Format: in vivo. As for the experimental part:
For toxicity studies, four female CD1 mice (Charles River Laboratories) were injected intraperitoneally (IP) with single doses of 10 mg/Kg (R,S)-JQAD1 solubilized in 10% hydroxypropyl β-cyclodextrin (Sigma-Aldrich®) in sterile water. Following injection, blood concentration of (R,S)-JQAD1 was measured by serial measurements of animal serum at time points out to 24 h, by liquid chromatography with tandem mass spectrometry (LC-MS/MS) analysis. Pharmacokinetics were performed at ChemPartner in Shanghai, China, using LC-MS/MS method and pharmacokinetics parameters (Tmax, Cmax, T1/2, AUC, etc.) calculated with WinNonlin® V 6.2 statistics software (Pharsight Corporation) using a noncompartmental model. For maximally tolerated dose (MTD) testing, six female CD1 mice were treated with daily IP doses of (R,S)-JQAD1 at 10, 20, or 40 mg/kg. Animals were monitored for animal weight, grooming and behavior daily without noted effects. […] Animal weights, behavior and grooming were monitored daily, for a total of 21 days. […] Blood samples were obtained by retro-orbital puncture and blood analyzed at the Small Animal Imaging Facility at Beth Israel Deaconess Medical Center (Boston, MA), on a Hemavet® 9500FS (Drew Scientific) for blood counts, creatinine, AST, ALT, ALP, GGTP, and BUN measurements.

Data set [2] has as its system cleaved caspase-3 and cleaved PARP1. Nature of the data set: Western blotting of apoptosis markers. It is filed as cell-based, human. To be noted: Kelly (1 μM) and NGP (2.5 μM) cells, 12-36 h. As for the experimental part:
as §1

The subject of data set [3] is super-enhancer regulated and CRC genes. Description: ERCC spike-in RNA-seq of xenograft tumor cells. Format: in vivo, human. From the text: For in vivo analyses, tumors were removed from animals treated with either vehicle […] to filtering for single cells through a […] filter. Single cell suspensions were then solubilized in TRIzol™ (Ambion) as described above, with processing, including ERCC RNA spike in controls, treatment with RNAse-free DNAse I, and spin purification. Following preparation, there was sufficient material to proceed with RNAseq analysis for four vehicle control and three JQAD1 treated tumor specimen. Purified RNA samples were subjected to library construction with a low input RNA protocol followed by poly-adenylation preparation and sequencing using the Illumina NextSeq® 500 (paired end, 75 bp reads). Raw reads for RNA-seq of in vivo models were aligned first using hisat2 v2.1 in paired-end mode against the mm9 revision of the mouse genome to filter out contaminating mouse reads. Remaining reads were aligned to a reference genome containing the hg19 revision of the human reference and the sequences of ERCC spike-in probes. Expression was quantified using sorted BAMs, a gene reference built using ERCC sizes and RefSeq genes downloaded Jul. 15, 2017, and htseq-count with parameters -I gene_id -stranded=reverse -f bam -m intersection-strict. Read counts were converted to transcripts per million (TPM) and used for cell number-normalization. […]
(In general: In xenograft studies the graft and the host belong to different species.)

T1 sequence (Q92793 whole entry): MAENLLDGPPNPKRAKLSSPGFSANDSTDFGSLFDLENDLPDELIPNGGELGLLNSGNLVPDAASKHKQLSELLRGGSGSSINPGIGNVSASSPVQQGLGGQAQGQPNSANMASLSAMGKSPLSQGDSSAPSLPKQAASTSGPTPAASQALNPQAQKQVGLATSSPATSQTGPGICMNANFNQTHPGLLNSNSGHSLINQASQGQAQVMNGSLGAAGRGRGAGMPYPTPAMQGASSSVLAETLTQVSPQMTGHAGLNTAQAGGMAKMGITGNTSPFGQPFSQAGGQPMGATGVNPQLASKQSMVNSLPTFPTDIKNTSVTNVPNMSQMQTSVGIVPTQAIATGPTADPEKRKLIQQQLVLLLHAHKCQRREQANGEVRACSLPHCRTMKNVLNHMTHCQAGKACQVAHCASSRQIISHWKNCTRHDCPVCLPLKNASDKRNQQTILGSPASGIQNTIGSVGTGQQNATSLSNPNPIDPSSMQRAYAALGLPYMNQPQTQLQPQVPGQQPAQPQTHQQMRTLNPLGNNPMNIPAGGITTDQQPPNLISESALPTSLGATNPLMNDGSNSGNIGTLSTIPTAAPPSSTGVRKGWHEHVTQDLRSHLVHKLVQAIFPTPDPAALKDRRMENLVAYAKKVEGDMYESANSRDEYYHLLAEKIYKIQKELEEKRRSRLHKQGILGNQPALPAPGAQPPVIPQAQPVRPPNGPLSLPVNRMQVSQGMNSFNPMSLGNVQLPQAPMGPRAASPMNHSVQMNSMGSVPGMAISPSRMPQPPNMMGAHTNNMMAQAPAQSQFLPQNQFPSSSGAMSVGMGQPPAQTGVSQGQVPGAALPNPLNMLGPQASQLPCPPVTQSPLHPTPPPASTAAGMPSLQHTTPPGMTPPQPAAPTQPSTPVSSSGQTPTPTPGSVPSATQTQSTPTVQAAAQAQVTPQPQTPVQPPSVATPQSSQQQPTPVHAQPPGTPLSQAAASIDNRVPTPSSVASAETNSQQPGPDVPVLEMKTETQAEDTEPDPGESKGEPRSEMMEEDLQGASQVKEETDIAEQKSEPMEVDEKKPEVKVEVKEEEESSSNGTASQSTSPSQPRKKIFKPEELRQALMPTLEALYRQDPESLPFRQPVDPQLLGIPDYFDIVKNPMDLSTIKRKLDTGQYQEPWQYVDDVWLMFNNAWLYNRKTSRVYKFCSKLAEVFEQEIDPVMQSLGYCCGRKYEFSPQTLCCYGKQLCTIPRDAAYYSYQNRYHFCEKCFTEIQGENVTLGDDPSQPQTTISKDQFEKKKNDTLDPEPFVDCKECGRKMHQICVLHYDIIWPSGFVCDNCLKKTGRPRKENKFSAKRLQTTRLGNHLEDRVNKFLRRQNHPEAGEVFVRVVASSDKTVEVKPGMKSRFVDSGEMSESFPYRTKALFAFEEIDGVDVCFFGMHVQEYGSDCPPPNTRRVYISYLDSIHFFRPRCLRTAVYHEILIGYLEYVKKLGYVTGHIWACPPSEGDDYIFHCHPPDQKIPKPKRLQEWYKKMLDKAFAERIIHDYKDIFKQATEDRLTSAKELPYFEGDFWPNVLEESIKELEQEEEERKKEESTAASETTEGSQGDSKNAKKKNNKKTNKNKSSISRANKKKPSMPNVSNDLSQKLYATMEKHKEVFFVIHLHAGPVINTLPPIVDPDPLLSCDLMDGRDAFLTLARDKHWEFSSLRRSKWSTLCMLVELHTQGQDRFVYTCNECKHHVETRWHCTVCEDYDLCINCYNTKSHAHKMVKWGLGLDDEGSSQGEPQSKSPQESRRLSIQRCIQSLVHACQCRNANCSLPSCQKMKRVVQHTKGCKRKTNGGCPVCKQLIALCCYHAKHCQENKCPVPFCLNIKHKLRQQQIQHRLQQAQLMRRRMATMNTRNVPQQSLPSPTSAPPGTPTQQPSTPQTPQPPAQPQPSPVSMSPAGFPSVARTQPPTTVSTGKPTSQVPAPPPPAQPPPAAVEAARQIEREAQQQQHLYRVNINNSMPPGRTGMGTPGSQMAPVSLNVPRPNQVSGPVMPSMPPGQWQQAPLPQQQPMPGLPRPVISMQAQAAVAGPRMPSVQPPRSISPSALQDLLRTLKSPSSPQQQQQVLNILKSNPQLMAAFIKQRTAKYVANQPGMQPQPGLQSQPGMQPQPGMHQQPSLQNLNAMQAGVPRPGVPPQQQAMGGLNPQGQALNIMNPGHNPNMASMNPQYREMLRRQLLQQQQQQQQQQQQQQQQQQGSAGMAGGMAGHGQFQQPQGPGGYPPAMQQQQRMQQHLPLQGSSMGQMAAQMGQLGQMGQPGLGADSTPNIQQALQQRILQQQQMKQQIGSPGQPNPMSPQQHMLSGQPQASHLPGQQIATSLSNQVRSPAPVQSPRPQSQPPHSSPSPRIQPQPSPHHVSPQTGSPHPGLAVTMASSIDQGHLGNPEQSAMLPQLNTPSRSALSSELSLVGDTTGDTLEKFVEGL

As for `C[C@H](N(Cc1ccc(F)cc1)C(=O)CN1C(=O)O[C@@]2(CCc3cc(NC(=O)CCCCCCCCCCCNc4ccc5c(c4)C(=O)N(C4CCC(=O)NC4=O)C5=O)ccc32)C1=O)C(F)(F)F` (stereo partly drawn) [JQAD1, 12-((2-(2,6-dioxopiperidin-3-yl)-1,3-dioxoisoindolin-5-yl)amino)-N-((R)-3′-(2-((4-fluorobenzyl)((S)-1,1,1-trifluoropropan-2-yl)amino)-2-oxoethyl)-2′,4′-dioxo-2,3-dihydrospiro[indene-1,5′-oxazolidin]-5-yl)dodecanamide], on CBP (Kelly cells, 24 h), the CBP expression levels entry was “neither compound had significant effects on expression levels of CBP”. Moreover, the “CBP detection at 24 h” value on CBP (Kelly, NGP and SIMA cells, 24 h) was “could still be detected”. At CBP (Kelly, NGP and SIMA cells, extended treatment), the “CBP expression with extended treatment” value is “loss of CBP expression was observed”. Further, the “tolerability / animal weight” value in data set [1] (daily IP at increasing doses (10, 20, 40 mg/kg), CD1 mice) was “well tolerated with no signs of animal weight loss; also recorded: no effect on animal weight”. For the same compound, in data set [1] (mouse, IP), the “maximal dosage for single-dose IP administration without evident toxicity” value came to 40 mg/kg. In data set [2], the “apoptosis: cleavage of caspase-3 and PARP1” value is “induction of cellular apoptosis marked by cleavage of caspase-3 and PARP1”. Further, the “expression of CRC genes and MYCN in tumors” value in data set [3] (40 mg/Kg daily for 14 days) was “among the most downregulated genes”. Further, the “RNA expression of super-enhancer versus typical-enhancer regulated genes in tumor cells” value in data set [3] (40 mg/Kg once daily, p<0.0001) was “preferential downregulation of genes regulated by super-enhancers compared with those regulated by typical enhancers”.
